Laboratory results as given in ChEMBL document CHEMBL1148837, “Development of new pyrrolopyrimidine-based inhibitors of Janus kinase 3 (JAK3)” (Bioorg Med Chem Lett, 2007).

Key:
TF-1 [1] = test: cells; assay type: functional, cell-based; settings: Homo sapiens
Description: Inhibition of IL4-induced TF1 cell proliferation

TF-1 [2] = test: cells; assay type: functional, cell-based; settings: Homo sapiens; remark: listed apart in the source
Description: Inhibition of IL3-induced TF1 cell proliferation

Row | Structure (SMILES) | IC50 (TF-1 [1]) [nM] | IC50 (TF-1 [2]) [nM]
1 | COC[C@H](C)Nc1nc(-n2cnc3ccncc32)nc2c1cc(C(=O)N1CCN(C)CC1)n2C | 1160 | 4790
2 | C[C@H](Nc1nc(-n2cnc3ccncc32)nc2c1cc(C(=O)N1CCN(C)CC1)n2C)c1ccccc1 | 80 | 90
3 | C[C@H](Nc1nc(-n2cnc3ccncc32)nc2c1cc(C(=O)NCCN(C)C)n2C)c1ccccc1 | 460 | 1950
4 | C[C@H](Nc1nc(-n2cnc3ccncc32)nc2c1cc(C(=O)NCCCN1CCOCC1)n2C)c1ccccc1 | 910 | 2790
5 | C[C@H](Nc1nc(-n2cnc3ccncc32)nc2c1cc(C(=O)N1CCOCC1)n2C)c1ccccc1 | 670 | 1400
6 | CONC(=O)c1cc2c(N[C@@H](C)c3ccccc3)nc(-n3cnc4ccncc43)nc2n1C | 450 | 740
7 | COc1ccc(Cl)c(Nc2nc(-n3cnc4ccncc43)nc3c2cc(C(=O)N2CCN(C)CC2)n3C)c1 | 490 | 2200
